Results on one molecule are retold here after PMC9133015 (Nature Communications, 2022).

Holding throughout (assay): Kinase inhibitor specificity profiling (Reaction Biology Corporation)
Assay type in all cases: biochemical
Holding throughout (parameters): % Enzyme Activity (relative to DMSO controls): concentration or dose not given beside the values

Experiment [1] deals with T1, panel of 370 protein kinases (Homo sapiens, UniProt Q9Y2H1).
T1 construct: purchased Reaction Biology Corporation (assay service)
The note with it: 2 h, kinase STK38L/NDR2; read-out: % Enzyme Activity (relative to DMSO controls).

In experiment [2] the target is T2, panel of 370 protein kinases (Homo sapiens, UniProt P51617).
T2 construct: purchased Reaction Biology Corporation (assay service)
Conditions: 2 h, kinase IRAK1; read-out: % Enzyme Activity (relative to DMSO controls).

For experiment [3], the target named is T3, panel of 370 protein kinases (Homo sapiens, UniProt Q15303).
T3 construct: purchased Reaction Biology Corporation (assay service)
Conditions: 2 h, kinase ERBB4/HER4; read-out: % Enzyme Activity (relative to DMSO controls).

Experiment [4] concerns the target T4, panel of 370 protein kinases (Homo sapiens, UniProt P49761).
T4 construct: purchased Reaction Biology Corporation (assay service)
The note with it: 2 h, kinase CLK3; read-out: % Enzyme Activity (relative to DMSO controls).

Experiment [5] concerns the target T5, panel of 370 protein kinases (Homo sapiens, UniProt P05129).
T5 construct: purchased Reaction Biology Corporation (assay service)
The note with it: 2 h, kinase PKCg; read-out: % Enzyme Activity (relative to DMSO controls).

For experiment [6], the target named is T6, panel of 370 protein kinases (Homo sapiens, UniProt O75676).
T6 construct: purchased Reaction Biology Corporation (assay service)
The note with it: 2 h, kinase MSK2/RPS6KA4; read-out: % Enzyme Activity (relative to DMSO controls).

Experiment [7] concerns the target T7, panel of 370 protein kinases (Homo sapiens, UniProt P08922).
T7 construct: purchased Reaction Biology Corporation (assay service)
Conditions: 2 h, kinase ROS/ROS1; read-out: % Enzyme Activity (relative to DMSO controls).

The target in experiment [8] is T8, panel of 370 protein kinases (Homo sapiens, UniProt P54760).
T8 construct: purchased Reaction Biology Corporation (assay service)
Conditions: 2 h, kinase EPHB4; read-out: % Enzyme Activity (relative to DMSO controls).

Experiment [9] deals with T9, panel of 370 protein kinases (Homo sapiens, UniProt Q9H2K8).
T9 construct: purchased Reaction Biology Corporation (assay service)
The note with it: 2 h, kinase TAOK3/JIK; read-out: % Enzyme Activity (relative to DMSO controls).

Experiment [10] deals with T10, panel of 370 protein kinases (Homo sapiens, UniProt P07333).
T10 construct: purchased Reaction Biology Corporation (assay service)
Conditions: 2 h, kinase FMS; read-out: % Enzyme Activity (relative to DMSO controls).

Experiment [11] has as its target T11, panel of 370 protein kinases (Homo sapiens, UniProt P07332).
T11 construct: purchased Reaction Biology Corporation (assay service)
The note with it: 2 h, kinase FES/FPS; read-out: % Enzyme Activity (relative to DMSO controls).

Experiment [12] addresses T12, panel of 370 protein kinases (Homo sapiens, UniProt P00519).
T12 construct: purchased Reaction Biology Corporation (assay service)
The note with it: 2 h, kinase ABL1; read-out: % Enzyme Activity (relative to DMSO controls).

Experiment [13] has as its target T13, panel of 370 protein kinases (Homo sapiens, UniProt Q8IVH8).
T13 construct: purchased Reaction Biology Corporation (assay service)
Conditions: kinase GLK/MAP4K3.

Experiment [14] deals with T14, panel of 370 protein kinases (Homo sapiens, UniProt Q13554).
T14 construct: purchased Reaction Biology Corporation (assay service)
The note with it: 2 h, kinase CAMK2b; read-out: % Enzyme Activity (relative to DMSO controls).

The target of experiment [15] is T15, panel of 370 protein kinases (Homo sapiens, UniProt Q15418).
T15 construct: purchased Reaction Biology Corporation (assay service)
The note with it: 2 h, kinase RSK1; read-out: % Enzyme Activity (relative to DMSO controls).

For experiment [16], the target named is T16, panel of 370 protein kinases (Homo sapiens, UniProt Q9NRM7).
T16 construct: purchased Reaction Biology Corporation (assay service)
Conditions: kinase LATS2.

The target of experiment [17] is T17, panel of 370 protein kinases (Homo sapiens, UniProt P57078).
T17 construct: purchased Reaction Biology Corporation (assay service)
The note with it: 2 h, kinase RIPK4; read-out: % Enzyme Activity (relative to DMSO controls).

The target of experiment [18] is T18, panel of 370 protein kinases (Homo sapiens, UniProt P50750).
T18 construct: purchased Reaction Biology Corporation (assay service)
The note with it: 2 h, read-out: % Enzyme Activity (relative to DMSO controls).

In experiment [19] the target is T19, panel of 370 protein kinases (Homo sapiens, UniProt Q9H2X6).
T19 construct: purchased Reaction Biology Corporation (assay service)
Conditions: 2 h, kinase HIPK2; read-out: % Enzyme Activity (relative to DMSO controls).

For experiment [20], the target named is T20, panel of 370 protein kinases (Homo sapiens, UniProt Q6DT37).
T20 construct: purchased Reaction Biology Corporation (assay service)
The note with it: 2 h, kinase DMPK2; read-out: % Enzyme Activity (relative to DMSO controls).

In experiment [21] the target is T21, panel of 370 protein kinases (Homo sapiens, UniProt O96013).
T21 construct: purchased Reaction Biology Corporation (assay service)
Conditions: 2 h, kinase PAK4; read-out: % Enzyme Activity (relative to DMSO controls).

Values joined by “and” are separate entries in the source; they are usually repeats but may differ in a detail not shown here. Equal values may be shown once. Read-outs that look alike come from different tables or passages of the source.

T18 sequence (P50750 whole entry): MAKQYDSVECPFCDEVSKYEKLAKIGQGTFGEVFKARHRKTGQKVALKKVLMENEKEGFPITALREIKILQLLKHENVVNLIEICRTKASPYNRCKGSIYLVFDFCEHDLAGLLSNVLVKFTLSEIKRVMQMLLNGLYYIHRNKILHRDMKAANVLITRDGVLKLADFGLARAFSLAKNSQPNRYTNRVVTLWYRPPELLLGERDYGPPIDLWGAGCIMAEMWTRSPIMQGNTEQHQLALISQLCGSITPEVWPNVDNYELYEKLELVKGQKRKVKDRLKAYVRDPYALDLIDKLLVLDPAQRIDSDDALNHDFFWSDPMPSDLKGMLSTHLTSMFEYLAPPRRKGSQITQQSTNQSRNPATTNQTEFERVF
T16 sequence (Q9NRM7 whole entry): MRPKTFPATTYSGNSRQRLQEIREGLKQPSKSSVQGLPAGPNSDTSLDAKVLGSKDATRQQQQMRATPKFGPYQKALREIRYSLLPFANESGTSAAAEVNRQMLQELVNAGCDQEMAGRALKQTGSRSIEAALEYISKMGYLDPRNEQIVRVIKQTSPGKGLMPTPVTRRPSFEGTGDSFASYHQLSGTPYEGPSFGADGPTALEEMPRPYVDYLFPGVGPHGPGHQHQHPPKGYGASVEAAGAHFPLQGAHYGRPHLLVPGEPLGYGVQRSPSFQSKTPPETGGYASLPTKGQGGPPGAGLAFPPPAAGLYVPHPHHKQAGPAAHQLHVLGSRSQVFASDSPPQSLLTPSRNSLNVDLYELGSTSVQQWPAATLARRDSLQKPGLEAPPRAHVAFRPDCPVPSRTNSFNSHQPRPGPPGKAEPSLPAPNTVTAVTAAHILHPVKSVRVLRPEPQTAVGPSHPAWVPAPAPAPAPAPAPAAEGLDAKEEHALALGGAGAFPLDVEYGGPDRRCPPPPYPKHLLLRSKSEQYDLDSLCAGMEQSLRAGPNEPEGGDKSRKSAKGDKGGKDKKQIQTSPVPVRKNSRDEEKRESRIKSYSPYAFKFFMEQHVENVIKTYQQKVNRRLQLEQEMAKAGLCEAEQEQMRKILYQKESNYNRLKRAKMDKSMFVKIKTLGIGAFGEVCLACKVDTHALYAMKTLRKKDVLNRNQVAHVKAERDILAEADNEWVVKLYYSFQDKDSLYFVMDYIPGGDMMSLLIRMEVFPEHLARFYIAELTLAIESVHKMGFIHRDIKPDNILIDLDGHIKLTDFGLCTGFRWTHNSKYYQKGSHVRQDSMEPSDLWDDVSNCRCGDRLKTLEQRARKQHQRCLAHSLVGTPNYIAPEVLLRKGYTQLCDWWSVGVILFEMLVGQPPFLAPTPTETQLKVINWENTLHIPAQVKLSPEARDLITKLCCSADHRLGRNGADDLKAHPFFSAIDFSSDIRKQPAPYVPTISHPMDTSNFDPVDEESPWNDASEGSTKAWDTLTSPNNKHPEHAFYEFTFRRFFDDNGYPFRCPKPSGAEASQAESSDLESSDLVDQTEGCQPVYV
T13 sequence (Q8IVH8 whole entry): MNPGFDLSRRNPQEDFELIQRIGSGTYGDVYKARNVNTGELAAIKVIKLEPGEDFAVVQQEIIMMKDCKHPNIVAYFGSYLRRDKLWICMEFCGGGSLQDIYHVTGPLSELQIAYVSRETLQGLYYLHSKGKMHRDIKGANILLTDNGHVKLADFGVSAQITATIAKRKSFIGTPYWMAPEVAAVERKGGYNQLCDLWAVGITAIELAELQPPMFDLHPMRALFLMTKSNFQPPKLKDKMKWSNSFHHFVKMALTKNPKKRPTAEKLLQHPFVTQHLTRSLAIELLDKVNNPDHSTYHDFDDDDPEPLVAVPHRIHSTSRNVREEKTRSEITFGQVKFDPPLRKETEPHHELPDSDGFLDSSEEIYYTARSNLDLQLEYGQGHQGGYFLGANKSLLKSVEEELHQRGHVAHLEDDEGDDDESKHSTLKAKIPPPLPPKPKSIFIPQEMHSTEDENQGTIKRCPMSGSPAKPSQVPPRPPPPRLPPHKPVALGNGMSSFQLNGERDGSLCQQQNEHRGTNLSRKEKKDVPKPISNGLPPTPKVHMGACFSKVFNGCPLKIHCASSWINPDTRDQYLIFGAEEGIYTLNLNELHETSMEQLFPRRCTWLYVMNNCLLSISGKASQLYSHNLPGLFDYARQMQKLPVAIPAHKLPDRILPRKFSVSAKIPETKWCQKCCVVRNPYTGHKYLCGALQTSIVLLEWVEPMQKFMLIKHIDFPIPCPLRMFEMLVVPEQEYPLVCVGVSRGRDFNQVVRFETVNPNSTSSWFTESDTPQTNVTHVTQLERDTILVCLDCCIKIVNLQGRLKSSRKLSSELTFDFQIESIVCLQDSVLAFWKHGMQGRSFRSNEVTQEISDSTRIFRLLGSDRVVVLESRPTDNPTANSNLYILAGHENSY
T7 sequence (P08922 28-2347): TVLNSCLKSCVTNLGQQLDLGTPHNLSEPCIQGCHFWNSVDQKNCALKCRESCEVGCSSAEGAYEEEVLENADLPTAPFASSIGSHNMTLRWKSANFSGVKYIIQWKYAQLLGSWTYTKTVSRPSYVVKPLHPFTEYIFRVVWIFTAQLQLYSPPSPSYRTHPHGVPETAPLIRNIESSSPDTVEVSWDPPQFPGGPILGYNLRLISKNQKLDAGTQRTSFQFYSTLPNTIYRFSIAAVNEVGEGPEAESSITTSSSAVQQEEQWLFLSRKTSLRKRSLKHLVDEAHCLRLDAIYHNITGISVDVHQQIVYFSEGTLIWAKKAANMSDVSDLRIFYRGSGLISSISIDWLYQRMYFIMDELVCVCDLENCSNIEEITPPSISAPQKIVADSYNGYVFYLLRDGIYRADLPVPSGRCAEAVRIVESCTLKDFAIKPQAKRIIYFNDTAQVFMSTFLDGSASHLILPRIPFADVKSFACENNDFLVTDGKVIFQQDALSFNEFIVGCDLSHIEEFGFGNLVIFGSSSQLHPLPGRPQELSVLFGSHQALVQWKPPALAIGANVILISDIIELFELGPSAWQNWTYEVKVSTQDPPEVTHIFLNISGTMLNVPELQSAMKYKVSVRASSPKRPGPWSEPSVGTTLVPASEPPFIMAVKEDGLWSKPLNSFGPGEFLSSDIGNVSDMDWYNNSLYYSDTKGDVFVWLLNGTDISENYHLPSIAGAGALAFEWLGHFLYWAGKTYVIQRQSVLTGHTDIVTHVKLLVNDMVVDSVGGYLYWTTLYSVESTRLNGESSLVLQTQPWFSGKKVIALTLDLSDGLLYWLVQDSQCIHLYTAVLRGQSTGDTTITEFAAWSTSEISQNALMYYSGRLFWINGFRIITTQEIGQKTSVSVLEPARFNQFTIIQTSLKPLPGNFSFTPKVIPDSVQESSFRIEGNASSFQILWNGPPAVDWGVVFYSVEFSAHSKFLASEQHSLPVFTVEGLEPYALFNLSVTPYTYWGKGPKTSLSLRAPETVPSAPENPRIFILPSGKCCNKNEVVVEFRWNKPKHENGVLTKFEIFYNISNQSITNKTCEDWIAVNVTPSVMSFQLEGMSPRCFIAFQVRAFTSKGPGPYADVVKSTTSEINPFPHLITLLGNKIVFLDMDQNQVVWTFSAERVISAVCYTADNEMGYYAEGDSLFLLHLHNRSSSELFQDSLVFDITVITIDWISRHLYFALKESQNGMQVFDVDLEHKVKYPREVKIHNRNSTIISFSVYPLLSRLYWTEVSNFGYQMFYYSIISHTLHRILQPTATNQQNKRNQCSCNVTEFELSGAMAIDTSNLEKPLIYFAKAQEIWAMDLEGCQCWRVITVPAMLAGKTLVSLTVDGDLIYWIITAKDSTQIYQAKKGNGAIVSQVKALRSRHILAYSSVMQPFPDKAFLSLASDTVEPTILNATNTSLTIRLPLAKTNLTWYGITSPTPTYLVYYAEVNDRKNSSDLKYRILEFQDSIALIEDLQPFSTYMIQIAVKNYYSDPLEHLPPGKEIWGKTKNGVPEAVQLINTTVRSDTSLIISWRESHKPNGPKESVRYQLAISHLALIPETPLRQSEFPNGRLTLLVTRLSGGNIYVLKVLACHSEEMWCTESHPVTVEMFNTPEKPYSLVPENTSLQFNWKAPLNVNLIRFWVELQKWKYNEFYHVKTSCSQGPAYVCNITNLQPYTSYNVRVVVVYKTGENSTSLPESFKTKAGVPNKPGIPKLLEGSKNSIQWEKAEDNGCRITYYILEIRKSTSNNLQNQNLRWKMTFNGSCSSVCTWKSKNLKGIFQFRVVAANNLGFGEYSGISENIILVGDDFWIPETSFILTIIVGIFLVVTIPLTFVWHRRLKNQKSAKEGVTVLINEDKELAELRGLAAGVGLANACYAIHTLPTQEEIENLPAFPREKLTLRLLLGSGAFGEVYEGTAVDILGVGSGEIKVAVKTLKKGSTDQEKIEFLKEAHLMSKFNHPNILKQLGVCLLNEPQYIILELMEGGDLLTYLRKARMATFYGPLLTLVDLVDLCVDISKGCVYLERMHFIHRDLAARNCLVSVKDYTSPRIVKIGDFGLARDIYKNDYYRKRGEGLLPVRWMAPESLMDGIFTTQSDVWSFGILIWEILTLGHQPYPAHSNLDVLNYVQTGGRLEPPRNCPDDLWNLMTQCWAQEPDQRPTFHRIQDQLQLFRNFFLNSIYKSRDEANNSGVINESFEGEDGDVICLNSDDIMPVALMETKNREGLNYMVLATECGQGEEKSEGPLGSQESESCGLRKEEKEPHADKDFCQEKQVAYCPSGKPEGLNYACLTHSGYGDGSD

In the case of `CCN1CCN(C(=O)c2ccc(Nc3ncc(F)c(-c4ccc5nc(N(C)C)sc5c4)n3)nc2)CC1` [YK-2-69], the remaining activity at 1 µM in experiment [1] was found to be 95.4%; in experiment [2], 90.6%; in experiment [3], 88.5%; in experiment [4] it was 80.5%; in experiment [5] it was 90.9%; in experiment [6], 96.2%. In addition, the remaining activity at 1 µM stood at 79.3% in experiment [7]; 106% in [8]; 104% in experiment [9]; 94.5% in experiment [10]; 85.3% in experiment [11]; 85% in experiment [12]. The remaining activity at 1 µM worked out at 78.5% in [14]; 102% in experiment [15]; 92% in [17]; 96.3% in [18] (kinase CDK9/CYCLIN K); 90.8% in experiment [18] (kinase CDK9/cyclin T1); 96.8% in experiment [18] (kinase CDK9/cyclin T2). The remaining activity at 1 µM in experiment [19] is 28.1%; in experiment [20], 97.7%; in [21], 108%. In addition, the “% Enzyme Activity (relative to DMSO controls)” value in experiment [13] was 96.94% and 93.55%; in experiment [16], 96.27% and 92.88%.
